Experimental data from patent US10703764B2, “Benzopiperazine compositions as BET bromodomain inhibitors” (FORMA Therapeutics, Inc., priority 2013, dated 2020).

Experiments:
MV4-11 cells = test: Oncology cell growth assay (3-day proliferation, CellTiter-Glo); type: cell-based; conditions: Homo sapiens, MV4-11, 72 h, AML cell line MV4-11, 72 hours, compounds grouped by IC50 range, read-out: MV4-11 IC50 (inhibition of proliferation, gIC50)
Method in brief: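 72 h, 37° C, 5% CO2; MV4-11, 3000 cells/well, RPMI 1640 + 10% FBS. Compound final 10, 3.3, 1.1, 0.37, 0.12, 0.041, 0.013, 0.0045 μM. Readout CellTiter-Glo luminescence; gIC50 by 4-parameter logistic fit, normalised to DMSO and no-cell background.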

BRD4 BD2 = molecular target: T1, BRD4 BD2 (Homo sapiens, UniProt O60885); test: AlphaScreen binding assay, BRD4 Bromodomain 2
T1 construct: made in house
Method in brief: (§1)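 An AlphaScreen competition format was used with His-BRD4 BD1 or BD2 and biotin-H4 K5/8/12/16-acetyl peptide, each at matched final levels of 50 nM (BD1) or 100 nM (BD2). Incubation in HEPES/NaCl buffer with 0.1% BSA and 0.01% Triton X-100 ran ≥1 h before IC50 determination.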

BRD4 BD1 = molecular target: T2, BRD4 BD1 (Homo sapiens, UniProt O60885); test: AlphaScreen binding assay, BRD4 Bromodomain 1
T2 construct: made in house
Method in brief: as §1

| IC50 (MV4-11 cells) | IC50 (BRD4 BD2) | IC50 (BRD4 BD1) | SMILES |
| --- | --- | --- | --- |
| > 500 nM | 50 to 500 nM | 100 to 1000 nM | CC(C)OC(=O)N1C[C@H](C)N(C(=O)C2CC2)c2ccc(-c3cnn(CC4CCS(=O)(=O)CC4)c3)cc21 [Example I-609] |
| > 500 nM | 50 to 500 nM | 100 to 1000 nM | CC(C)OC(=O)N1C[C@H](C)N(C(=O)C2CC2)c2ccc(-c3cnn(CCN4CCCS4(=O)=O)c3)cc21 [Example I-611] |
| > 500 nM | 50 to 500 nM | 100 to 1000 nM | CC(C)OC(=O)N1C[C@H](C)N(C(=O)C2CC2)c2ccc(-c3cnn(CCn4ccnc4)c3)cc21 [Example I-612] |
| 100 to 500 nM | 50 to 500 nM | 100 to 1000 nM | CC(C)OC(=O)N1C[C@H](C)N(C(=O)C2CC2)c2ccc(-c3cnn(CC4(CO)COC4)c3)cc21 [Example I-615] |
| 100 to 500 nM | 50 to 500 nM | 100 to 1000 nM | CC(C)OC(=O)N1CC(C)N(C(=O)C2CC2)c2ccc(-c3cnn(Cc4c[nH]cn4)c3)cc21 (stereo not drawn) [Example I-616] |
| 100 to 500 nM | 50 to 500 nM | 100 to 1000 nM | Cc1noc(C)c1Cn1cc(-c2ccc3c(c2)N(C(=O)OC(C)C)C[C@H](C)N3C(=O)C2CC2)cn1 [Example I-617] |
| 100 to 500 nM | > 500 nM | 1000 to 10000 nM | CC(C)OC(=O)N1C[C@H](C)N(C(=O)C2CC2)c2ccc(-c3cnn(CC4CCC4)c3)cc21 [Example I-618] |
| 100 to 500 nM | 50 to 500 nM | 100 to 1000 nM | CC(C)OC(=O)N1C[C@H](C)N(C(=O)C2CC2)c2ccc(-c3cnn(CC(F)(F)F)c3)cc21 [Example I-619] |
| 100 to 500 nM | 50 to 500 nM | 100 to 1000 nM | CC(C)OC(=O)N1C[C@H](C)N(C(=O)C2CC2)c2ccc(-c3cnn(CC4(C)COC4)c3)cc21 [Example I-620] |
| > 500 nM | 50 to 500 nM | 100 to 1000 nM | CC(C)OC(=O)N1C[C@H](C)N(C(=O)C2CC2)c2ccc(-c3cnn(CCC(N)=O)c3)cc21 [Example I-621] |
| 100 to 500 nM | 50 to 500 nM | 100 to 1000 nM | CC(C)OC(=O)N1C[C@H](C)N(C(=O)C2CC2)c2ccc(-c3cnn(CC4CCOCC4)c3)cc21 [Example I-623] |
| > 500 nM | 50 to 500 nM | 100 to 1000 nM | COC(=O)N1c2ccc(-c3cnn(CC4CCS(=O)(=O)CC4)c3)cc2N(C(=O)OC(C)C)C[C@@H]1C [Example I-624] |
| > 500 nM | 50 to 500 nM | 100 to 1000 nM | COC(=O)N1c2ccc(-c3cnn(CC(=O)N(C)C4CC4)c3)cc2N(C(=O)OC(C)C)C[C@@H]1C [Example I-625] |
| > 500 nM | 50 to 500 nM | 100 to 1000 nM | COC(=O)N1c2ccc(-c3cnn(CCN4CCCS4(=O)=O)c3)cc2N(C(=O)OC(C)C)C[C@@H]1C [Example I-626] |
| > 500 nM | 50 to 500 nM | 100 to 1000 nM | COC(=O)N1c2ccc(-c3cnn(CCn4ccnc4)c3)cc2N(C(=O)OC(C)C)C[C@@H]1C [Example I-627] |
| 100 to 500 nM | 50 to 500 nM | 100 to 1000 nM | COC(=O)N1c2ccc(-c3cnn(CCN4CCCC4=O)c3)cc2N(C(=O)OC(C)C)C[C@@H]1C [Example I-628] |
| 100 to 500 nM | 50 to 500 nM | < 100 nM | COC(=O)N1c2ccc(-c3cnn(CC4(CO)COC4)c3)cc2N(C(=O)OC(C)C)C[C@@H]1C [Example I-630] |
| > 500 nM | 50 to 500 nM | 100 to 1000 nM | COC(=O)N1c2ccc(-c3cnn(Cc4c[nH]cn4)c3)cc2N(C(=O)OC(C)C)CC1C (stereo not drawn) [Example I-631] |
| 100 to 500 nM | 50 to 500 nM | 100 to 1000 nM | COC(=O)N1c2ccc(-c3cnn(Cc4cncnc4)c3)cc2N(C(=O)OC(C)C)C[C@@H]1C [Example I-632] |

| IC50 (MV4-11 cells) | IC50 (BRD4 BD2) | IC50 (BRD4 BD1) | SMILES |
| --- | --- | --- | --- |
| 100 to 500 nM | 50 to 500 nM | 100 to 1000 nM | COC(=O)N1c2ccc(-c3cnn(Cc4cnccn4)c3)cc2N(C(=O)OC(C)C)C[C@@H]1C [Example I-633] |
| 100 to 500 nM | 50 to 500 nM | 100 to 1000 nM | COC(=O)N1c2ccc(-c3cnn(Cc4c(C)noc4C)c3)cc2N(C(=O)OC(C)C)C[C@@H]1C [Example I-634] |
| > 500 nM | > 500 nM | 100 to 1000 nM | COC(=O)N1c2ccc(-c3cnn(CC(F)(F)F)c3)cc2N(C(=O)OC(C)C)C[C@@H]1C [Example I-636] |
| 100 to 500 nM | 50 to 500 nM | 100 to 1000 nM | COC(=O)N1c2ccc(-c3cnn(CC4(C)COC4)c3)cc2N(C(=O)OC(C)C)C[C@@H]1C [Example I-637] |
| > 500 nM | 50 to 500 nM | 100 to 1000 nM | COC(=O)N1c2ccc(-c3cnn(CCC(N)=O)c3)cc2N(C(=O)OC(C)C)C[C@@H]1C [Example I-638] |
| > 500 nM | 50 to 500 nM | 100 to 1000 nM | COC(=O)N1c2ccc(-c3cnn(Cc4ccncc4)c3)cc2N(C(=O)OC(C)C)C[C@@H]1C [Example I-640] |
| 100 to 500 nM | 50 to 500 nM | 100 to 1000 nM | COC(=O)N1c2ccc(-c3cnn(CC4CCOCC4)c3)cc2N(C(=O)OC(C)C)C[C@@H]1C [Example I-641] |
| 100 to 500 nM | 50 to 500 nM | 100 to 1000 nM | CC(=O)N1c2ccc(-c3cnn(CC4COC4)c3)cc2N(C(=O)OC(C)C)C[C@@H]1C [Example I-642] |
| 100 to 500 nM | 50 to 500 nM | 100 to 1000 nM | CC(C)OC(=O)N1C[C@H](C)N(C(=O)C2CC2)c2ccc(-c3cnn(CC4COC4)c3)cc21 [Example I-643] |
| > 500 nM | 50 to 500 nM | 100 to 1000 nM | COC(=O)N1c2ccc(-c3cnn(CC4COC4)c3)cc2N(C(=O)OC(C)C)C[C@@H]1C [Example I-644] |
| > 500 nM | 50 to 500 nM | 100 to 1000 nM | CC(=O)N1c2ccc(-c3cnn(C(C)C)c3)cc2N(C(=O)C2CC2)C[C@@H]1C [Example I-647] |
| > 500 nM | 50 to 500 nM | 100 to 1000 nM | CC(=O)N1c2ccc(-c3cnn(CC4(F)COC4)c3)cc2N(C(=O)C2CC2)C[C@@H]1C [Example I-649] |
| 100 to 500 nM | 50 to 500 nM | 100 to 1000 nM | CC(=O)N1c2ccc(-c3cnn(CCC#N)c3)cc2N(C(=O)C2CC2)C[C@@H]1C [Example I-650] |
| > 500 nM | 50 to 500 nM | 100 to 1000 nM | CC(=O)N1c2ccc(-c3cnn(CC(F)F)c3)cc2N(C(=O)C2CC2)C[C@@H]1C [Example I-651] |
| > 500 nM | 50 to 500 nM | 100 to 1000 nM | CC(=O)N1c2ccc(-c3cnn(Cc4ccnn4C)c3)cc2N(C(=O)C2CC2)C[C@@H]1C [Example I-652] |
| 100 to 500 nM | 50 to 500 nM | 100 to 1000 nM | CC(=O)N1c2ccc(-c3cnn(C(C)C)c3)cc2N(C(=O)OC(C)C)C[C@@H]1C [Example I-653] |
| 100 to 500 nM | 50 to 500 nM | 100 to 1000 nM | CC(=O)N1c2ccc(-c3cnn(CC(=O)N4CCOCC4)c3)cc2N(C(=O)OC(C)C)C[C@@H]1C [Example I-654] |
| 100 to 500 nM | 50 to 500 nM | 100 to 1000 nM | CC(=O)N1c2ccc(-c3cnn(CC4CCC4)c3)cc2N(C(=O)C2CC2)C[C@@H]1C [Example I-656] |
| 100 to 500 nM | 50 to 500 nM | 100 to 1000 nM | CC(=O)N1c2ccc(-c3cnn(CC4CCOCC4)c3)cc2N(C(=O)C2CC2)C[C@@H]1C [Example I-657] |
